≈ marks a conversion by molar mass, not a printed value.
Key:
H. influR D/BL+ = assay type: cell-based, H. influ; conditions: Table 2C; strain RD/BL+
Experimental: (§1) The antibacterial efficacy of the present teicoplanin derivatives is illustrated by the following tables. The minimal inhibitory concentrations (MICs) were determined using a standard broth micro-dilution assay.

E. f. 2041 = assay: standard broth micro-dilution MIC; assay type: cell-based; conditions: Table 2B; strain 2041
Experimental: as §1

E. f. 180 = assay: standard broth micro-dilution MIC; assay type: cell-based; conditions: Table 2B; strain 180
Experimental: as §1

S. aureus SA1199B = assay: standard broth micro-dilution MIC; assay type: cell-based; conditions: Table 2B; strain SA1199B
Experimental: as §1

H. influ RD = assay: standard broth micro-dilution MIC; assay type: cell-based; conditions: Table 2C; strain RD
Experimental: as §1

S. h. 105 = assay: standard broth micro-dilution MIC; assay type: cell-based; conditions: Table 2B; strain 105
Experimental: as §1

S. epi 270 = assay: standard broth micro-dilution MIC; assay type: cell-based; conditions: Table 2B; strain 270
Experimental: as §1

E. gall. 245 = assay: standard broth micro-dilution MIC; assay type: cell-based; conditions: Table 2C; strain 245
Experimental: as §1

St. pyro C203 = assay: standard broth micro-dilution MIC; assay type: cell-based; conditions: Table 2C; strain C203
Experimental: as §1

S. aureus X400 = assay: standard broth micro-dilution MIC; assay type: cell-based; conditions: Table 2A; strain X400
Experimental: as §1

S. h. 415 = assay: standard broth micro-dilution MIC; assay type: cell-based; conditions: Table 2B; strain 415
Experimental: as §1

E. f. 276 = assay: standard broth micro-dilution MIC; assay type: cell-based; conditions: Table 2C; strain 276
Experimental: as §1

S. aureus X778 = assay: standard broth micro-dilution MIC; assay type: cell-based; conditions: Table 2A; strain X778
Experimental: as §1

S. aureus 491 = assay: standard broth micro-dilution MIC; assay type: cell-based; conditions: Table 2A; strain 491
Experimental: as §1

S. aureus 447 = assay: standard broth micro-dilution MIC; assay type: cell-based; conditions: Table 2A; strain 447
Experimental: as §1

EC14 = assay: standard broth micro-dilution MIC; assay type: cell-based; conditions: Table 2C; strain EC14
Experimental: as §1

St. pneumo P1 = assay: standard broth micro-dilution MIC; assay type: cell-based; conditions: Table 2C; strain P1
Experimental: as §1

S. aureus SA1199R = assay: standard broth micro-dilution MIC; assay type: cell-based; conditions: Table 2B; strain SA1199R
Experimental: as §1

M. cat M12 = assay: standard broth micro-dilution MIC; assay type: cell-based; conditions: Table 2C; strain M12
Experimental: as §1

S. aureus SA1199 = assay: standard broth micro-dilution MIC; assay type: cell-based; conditions: Table 2A; strain SA1199
Experimental: as §1

S. aureus 489 = assay: standard broth micro-dilution MIC; assay type: cell-based; conditions: Table 2A; strain 489
Experimental: as §1

S. aureus S13E = assay: standard broth micro-dilution MIC; assay type: cell-based; conditions: Table 2A; strain S13E
Experimental: as §1

S. aureus 446 = assay: standard broth micro-dilution MIC; assay type: cell-based; conditions: Table 2A; strain 446
Experimental: as §1

E. f. 180-1 = assay: standard broth micro-dilution MIC; assay type: cell-based; conditions: Table 2B; strain 180-1
Experimental: as §1

[1] = test system: vancomycin-sensitive enterococci; assay: mean geometric MIC, vancomycin-sensitive enterococci, broth micro-dilution; assay type: cell-based, Enterococcus faecium and Enterococcus faecalis; conditions: Table 3, representative vancomycin-sensitive enterococci
Experimental: as §1

[2] = test system: vancomycin-resistant enterococci; assay: mean geometric MIC, vancomycin-resistant enterococci, broth micro-dilution; assay type: cell-based, Enterococcus faecium and Enterococcus faecalis; conditions: Table 3, representative vancomycin-resistant enterococci
Experimental: as §1

| SMILES | MIC E. f. 2041 (E. f. 2041) | MIC E. f. 180 (E. f. 180) | MIC S. aureus SA1199B (S. aureus SA1199B) | MIC S. h. 105 (S. h. 105) | MIC S. epi 270 (S. epi 270) | MIC E. gall. 245 (E. gall. 245) | MIC St. pyro C203 (St. pyro C203) | MIC S. aureus X400 (S. aureus X400) | MIC S. h. 415 (S. h. 415) | MIC E. f. 276 (E. f. 276) | MIC S. aureus X778 (S. aureus X778) | MIC S. aureus 491 (S. aureus 491) | MIC S. aureus 447 (S. aureus 447) | MIC EC14 (EC14) | MIC St. pneumo P1 (St. pneumo P1) | MIC S. aureus SA1199R (S. aureus SA1199R) | MIC M. cat M12 (M. cat M12) | MIC S. aureus SA1199 (S. aureus SA1199) | MIC S. aureus 489 (S. aureus 489) | MIC S. aureus S13E (S. aureus S13E) | further results |
| --- | --- | --- | --- | --- | --- | --- | --- | --- | --- | --- | --- | --- | --- | --- | --- | --- | --- | --- | --- | --- | --- |
| CC(=O)NC1C(OC2c3ccc(c(Cl)c3)Oc3cc4cc(c3OC3OC(CO)C(O)C(O)C3NCc3ccc(-c5ccccc5)cc3)Oc3ccc(cc3Cl)CC3NC(=O)C(NCc5ccc(-c6ccccc6)cc5)c5ccc(O)c(c5)Oc5cc(O)cc(c5)C(NC3=O)C(=O)NC4C(=O)NC3C(=O)NC2C(=O)NC(C(=O)O)c2cc(O)cc(OC4OC(CO)C(O)C(O)C4O)c2-c2cc3ccc2O)OC(CO)C(O)C1O.O=C(O)C(F)(F)F (centres unmarked) [Example 1, Deacyl Teicoplanin, Bis(4-phenylbenzyl) Derivative] | ≤ .06 µg/mL | ≤ 06 µg/mL | 0.5 µg/mL | ≤ .06 µg/mL | 1 µg/mL | ≤ .06 µg/mL | ≤ .06 µg/mL | 0.25 µg/mL | 4 µg/mL | ≤ .06 µg/mL | 0.25 µg/mL | 0.25 µg/mL | 2 µg/mL | > 64 µg/mL | ≤ .06 µg/mL | ≤ .06 µg/mL | ≤ .06 µg/mL | 0.25 µg/mL | 0.125 µg/mL | 0.25 µg/mL | MIC H. influR D/BL+ (H. influR D/BL+): 64 µg/mL; MIC H. influ RD (H. influ RD): 64 µg/mL; MIC S. aureus 446 (S. aureus 446): 0.5 µg/mL; MIC E. f. 180-1 (E. f. 180-1): ≤ .06 µg/mL |
| CC(=O)NC1C(OC2c3ccc(c(Cl)c3)Oc3cc4cc(c3OC3OC(CO)C(O)C(O)C3N)Oc3ccc(cc3Cl)CC3NC(=O)C(NCc5ccc(-c6ccccc6)cc5)c5ccc(O)c(c5)Oc5cc(O)cc(c5)C(NC3=O)C(=O)NC4C(=O)NC3C(=O)NC2C(=O)NC(C(=O)O)c2cc(O)cc(OC4OC(CO)C(O)C(O)C4O)c2-c2cc3ccc2O)OC(CO)C(O)C1O (centres unmarked) [Example 2, Deacyl Teicoplanin, N^15-(4-phenylbenzyl) Derivative] | ≤ .03 µg/mL | 32 µg/mL (≈ 16.9 µM) | ≤ .03 µg/mL | 0.25 µg/mL (≈ 0.132 µM) | 0.25 µg/mL (≈ 0.132 µM) | 0.25 µg/mL (≈ 0.132 µM) | ≤ .03 µg/mL | ≤ .03 µg/mL | 8 µg/mL (≈ 4.23 µM) | ≤ .03 µg/mL | 0.125 µg/mL (≈ 0.0661 µM) | ≤ .03 µg/mL | 0.25 µg/mL (≈ 0.132 µM) | > 32 µg/mL | ≤ .03 µg/mL | ≤ .03 µg/mL | 0.25 µg/mL (≈ 0.132 µM) | ≤ .03 µg/mL | ≤ .03 µg/mL | ≤ .03 µg/mL | Sens. MIC [1]: 2.6 µg/mL; MIC H. influR D/BL+ (H. influR D/BL+): 32 µg/mL (≈ 16.9 µM); Resist. MIC [2]: > 32 µg/mL; MIC H. influ RD (H. influ RD): 16 µg/mL (≈ 8.46 µM); MIC S. aureus 446 (S. aureus 446): ≤ .03 µg/mL; MIC E. f. 180-1 (E. f. 180-1): 0.25 µg/mL (≈ 0.132 µM) |
| CC(=O)NC1C(OC2c3ccc(c(Cl)c3)Oc3cc4cc(c3OC3OC(CO)C(O)C(O)C3NCc3ccc(Oc5ccccc5)cc3)Oc3ccc(cc3Cl)CC3NC(=O)C(NCc5ccc(Oc6ccccc6)cc5)c5ccc(O)c(c5)Oc5cc(O)cc(c5)C(NC3=O)C(=O)NC4C(=O)NC3C(=O)NC2C(=O)NC(C(=O)O)c2cc(O)cc(OC4OC(CO)C(O)C(O)C4O)c2-c2cc3ccc2O)OC(CO)C(O)C1O (centres unmarked) [Example 10] | ≤ .06 µg/mL | 0.25 µg/mL (≈ 0.12 µM) | 0.5 µg/mL (≈ 0.239 µM) | > 64 µg/mL | 0.5 µg/mL (≈ 0.239 µM) | 0.25 µg/mL (≈ 0.12 µM) | ≤ .06 µg/mL | 0.25 µg/mL (≈ 0.12 µM) | 8 µg/mL (≈ 3.83 µM) | 0.5 µg/mL (≈ 0.239 µM) | 0.5 µg/mL (≈ 0.239 µM) | 1 µg/mL (≈ 0.478 µM) | 1 µg/mL (≈ 0.478 µM) | > 64 µg/mL | 0.125 µg/mL (≈ 0.0598 µM) | ≤ .06 µg/mL | ≤ .06 µg/mL | 2 µg/mL (≈ 0.957 µM) | 0.5 µg/mL (≈ 0.239 µM) | 2 µg/mL (≈ 0.957 µM) | Sens. MIC [1]: 0.19 µg/mL; Resist. MIC [2]: 1.7 µg/mL; MIC S. aureus 446 (S. aureus 446): 0.25 µg/mL (≈ 0.12 µM); MIC E. f. 180-1 (E. f. 180-1): ≤ .06 µg/mL |
| CC(=O)NC1C(OC2c3ccc(c(Cl)c3)Oc3cc4cc(c3OC3OC(CO)C(O)C(O)C3NCc3cccc(Oc5ccccc5)c3)Oc3ccc(cc3Cl)CC3NC(=O)C(NCc5cccc(Oc6ccccc6)c5)c5ccc(O)c(c5)Oc5cc(O)cc(c5)C(NC3=O)C(=O)NC4C(=O)NC3C(=O)NC2C(=O)NC(C(=O)O)c2cc(O)cc(OC4OC(CO)C(O)C(O)C4O)c2-c2cc3ccc2O)OC(CO)C(O)C1O (centres unmarked) [Example 11] | ≤ .06 µg/mL | 1 µg/mL (≈ 0.478 µM) | 0.25 µg/mL (≈ 0.12 µM) | > 64 µg/mL | ≤ .06 µg/mL | 0.125 µg/mL (≈ 0.0598 µM) | ≤ .06 µg/mL | 0.5 µg/mL (≈ 0.239 µM) | 16 µg/mL (≈ 7.66 µM) | 0.25 µg/mL (≈ 0.12 µM) | 0.25 µg/mL (≈ 0.12 µM) | 0.25 µg/mL (≈ 0.12 µM) | 1 µg/mL (≈ 0.478 µM) | > 64 µg/mL | ≤ .06 µg/mL | ≤ .06 µg/mL | ≤ .06 µg/mL | 0.5 µg/mL (≈ 0.239 µM) | 1 µg/mL (≈ 0.478 µM) | 2 µg/mL (≈ 0.957 µM) | Sens. MIC [1]: 0.11 µg/mL; Resist. MIC [2]: 3.4 µg/mL; MIC S. aureus 446 (S. aureus 446): 2 µg/mL (≈ 0.957 µM); MIC E. f. 180-1 (E. f. 180-1): 0.25 µg/mL (≈ 0.12 µM) |

From US5916873A, “Teicoplanin derivatives” (Eli Lilly and Company, priority 1998, dated 1999)
